# Data: US8178548B2, “Anti-infective agents and uses thereof” (priority 2007, dated 2012)
# Assays:
# [1] = biological target: T1, HCV polymerase 1A (Δ21 NS5B, H77) (Hepatitis C virus genotype 1a, UniProt P27958); test: biochemical
# T1 construct: 20 to 50 nM Δ21 NS5B
# In short: (§1)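 Δ21 NS5B (20–50 nM) was preincubated with inhibitor, 60–125 μM GTP and 2 mM MnCl2 (pH 7.4) for 15 min at RT. RNA synthesis on 5 nM template with 20 μM CTP/ATP and 1 μM ³H-UTP ran 2–4 h at RT. Spermine-precipitated RNA was filter-counted, and IC50 was fit with a tight-binding equation.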
# [2] = biological target: T2, HCV polymerase 1B (Δ21 NS5B, HCV Strain 1B BK) (Hepatitis C virus genotype 1b, UniProt P26663); test: biochemical
# T2 construct: 20 to 50 nM Δ21 NS5B
# T2 sequence (P26663 2420-2989, stated change not applied): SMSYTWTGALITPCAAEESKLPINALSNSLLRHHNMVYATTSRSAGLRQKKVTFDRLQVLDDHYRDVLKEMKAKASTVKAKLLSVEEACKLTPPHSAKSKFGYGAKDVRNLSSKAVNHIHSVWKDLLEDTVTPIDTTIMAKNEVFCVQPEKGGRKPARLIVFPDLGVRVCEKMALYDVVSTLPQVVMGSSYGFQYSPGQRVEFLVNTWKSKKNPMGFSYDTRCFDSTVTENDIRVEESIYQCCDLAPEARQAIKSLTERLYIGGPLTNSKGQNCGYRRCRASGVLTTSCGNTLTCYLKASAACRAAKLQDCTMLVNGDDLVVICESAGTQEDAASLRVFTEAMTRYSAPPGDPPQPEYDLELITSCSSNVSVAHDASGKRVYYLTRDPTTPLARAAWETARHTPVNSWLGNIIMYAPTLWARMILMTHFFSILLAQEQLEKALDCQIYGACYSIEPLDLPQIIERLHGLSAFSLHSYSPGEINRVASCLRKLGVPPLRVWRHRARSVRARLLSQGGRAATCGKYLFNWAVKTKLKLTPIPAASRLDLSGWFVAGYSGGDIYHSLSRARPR
# In short: as §1
# [3] = system: genotype 1a-H77 subgenomic replicon cell line; test: HCV Polymerase Replicon Assay, genotype 1a-H77 (luciferase reporter); assay type: cell-based; settings: Hepatitis C virus, 72 h; replicon 1a-H77, luciferase, three days; read-out: EC50 1a
# [4] = system: genotype 1b-Con1 subgenomic replicon cell line; test: HCV Polymerase Replicon Assay, genotype 1b-Con1 (luciferase reporter); assay type: cell-based; settings: Hepatitis C virus, 72 h; replicon 1b-Con1, luciferase, three days; read-out: EC50 1b
# T1 sequence (P27958 2421-2990, stated change not applied): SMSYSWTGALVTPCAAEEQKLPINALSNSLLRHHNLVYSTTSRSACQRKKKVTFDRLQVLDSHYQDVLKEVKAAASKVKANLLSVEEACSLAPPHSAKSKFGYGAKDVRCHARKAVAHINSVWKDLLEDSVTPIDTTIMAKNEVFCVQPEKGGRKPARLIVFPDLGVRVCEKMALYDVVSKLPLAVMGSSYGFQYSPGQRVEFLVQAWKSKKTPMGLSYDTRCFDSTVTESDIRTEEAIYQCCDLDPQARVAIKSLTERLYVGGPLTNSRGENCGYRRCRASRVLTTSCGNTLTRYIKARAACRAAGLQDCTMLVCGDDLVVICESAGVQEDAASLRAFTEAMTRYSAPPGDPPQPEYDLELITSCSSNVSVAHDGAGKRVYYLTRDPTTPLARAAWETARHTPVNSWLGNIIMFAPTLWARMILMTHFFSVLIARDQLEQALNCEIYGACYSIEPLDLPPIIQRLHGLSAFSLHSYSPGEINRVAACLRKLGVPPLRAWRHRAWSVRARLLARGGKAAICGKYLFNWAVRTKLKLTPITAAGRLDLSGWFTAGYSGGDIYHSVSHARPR
smiles,measurement,setting,value
"COc1c(/C=C/c2ccc(NS(C)(=O)=O)cc2)cc(-n2ccc(=O)[nH]c2=O)cc1-c1ccsc1 [IB-L1-1.47, (E)-N-(4-(5-(2,4-dioxo-3,4-dihydropyrimidin-1(2H)-yl)-2-methoxy-3-(thiophen-3-yl)styryl)phenyl)methanesulfonamide]",IC50,[1],10 to 100 nM
same,IC50,[2],10 to 100 nM
same,EC50,[3],100 to 1000 nM
same,EC50,[4],10 to 100 nM
"COc1c(/C=C/c2ccc(NS(C)(=O)=O)cc2)cc(-n2ccc(=O)[nH]c2=O)cc1-c1cccs1 [IB-L1-1.48, (E)-N-(4-(5-(2,4-dioxo-3,4-dihydropyrimidin-1(2H)-yl)-2-methoxy-3-(thiophen-2-yl)styryl)phenyl)methanesulfonamide]",IC50,[1],10 to 100 nM
same,IC50,[2],10 to 100 nM
same,EC50,[3],100 to 1000 nM
same,EC50,[4],< 10 nM
"COc1c(/C=C/c2ccc(NS(C)(=O)=O)cc2)cc(-n2ccc(=O)[nH]c2=O)cc1S(C)(=O)=O [IB-L1-1.49, (E)-N-(4-(5-(2,4-dioxo-3,4-dihydropyrimidin-1(2H)-yl)-2-methoxy-3-(methylsulfonyl)styryl)phenyl)methanesulfonamide]",IC50,[1],10 to 100 nM
same,IC50,[2],100 to 1000 nM
same,EC50,[3],> 1000 nM
same,EC50,[4],> 1000 nM
"COc1c(/C=C/c2ccc(NS(C)(=O)=O)cc2)cc(-n2ccc(=O)[nH]c2=O)cc1-c1ccoc1 [IB-L1-1.50, (E)-N-(4-(5-(2,4-dioxo-3,4-dihydropyrimidin-1(2H)-yl)-3-(furan-3-yl)-2-methoxystyryl)phenyl)methanesulfonamide]",IC50,[1],10 to 100 nM
same,IC50,[2],10 to 100 nM
same,EC50,[3],100 to 1000 nM
same,EC50,[4],10 to 100 nM
"COc1c(I)cc(-n2ccc(=O)[nH]c2=O)cc1/C=C/c1ccc(NS(C)(=O)=O)cc1 [IB-L1-1.51, (E)-N-(4-(5-(2,4-dioxo-3,4-dihydropyrimidin-1(2H)-yl)-3-iodo-2-methoxystyryl)phenyl)methanesulfonamide]",IC50,[1],10 to 100 nM
same,IC50,[2],10 to 100 nM
same,EC50,[3],> 1000 nM
same,EC50,[4],10 to 100 nM
"COc1c(Br)cc(-n2ccc(=O)[nH]c2=O)cc1/C=C/c1ccc(NS(C)(=O)=O)cc1 [IB-L1-1.52, (E)-N-(4-(3-bromo-5-(2,4-dioxo-3,4-dihydropyrimidin-1(2H)-yl)-2-methoxystyryl)phenyl)methanesulfonamide]",IC50,[1],100 to 1000 nM
same,IC50,[2],100 to 1000 nM
same,EC50,[3],> 1000 nM
same,EC50,[4],100 to 1000 nM
"COC(=O)c1cc(NS(C)(=O)=O)ccc1CCc1cc(-n2ccc(=O)[nH]c2=O)cc(C(C)(C)C)c1OC [IB-L5-2-1.1, methyl 2-(3-tert-butyl-5-(2,4-dioxo-3,4-dihydropyrimidin-1(2H)-yl)-2-methoxyphenethyl)-5-(methylsulfonamido)benzoate]",IC50,[1],< 10 nM
same,IC50,[2],10 to 100 nM
same,EC50,[3],10 to 100 nM
same,EC50,[4],< 10 nM
"COc1c(CCc2ccc(NS(C)(=O)=O)cc2)cc(-n2ccc(=O)[nH]c2=O)cc1C(C)(C)C [IB-L5-2-1.2, N-(4-(3-tert-butyl-5-(2,4-dioxo-3,4-dihydropyrimidin-1(2H)-yl)-2-methoxyphenethyl)phenyl)methanesulfonamide]",IC50,[1],10 to 100 nM
same,IC50,[2],10 to 100 nM
same,EC50,[3],100 to 1000 nM
same,EC50,[4],10 to 100 nM
